The subject of the data set is Artemia salina. Put plainly: Toxicity in Artemia salina after 24 hrs. Type of data set: organism-based. Particulars: in vivo.
`C#CCCCCCCCCCCCCCCCC/C=C\CCCCC#CC(=O)C#CCCCC/C=C\CCCCCC/C=C/C(O)C#C` (centres undefined) gave an LD50 of 6.3 ppm.

In turn, `C#C/C=C\CCCCCCCCCCCCCC/C=C\CC/C=C\C#CC(O)C#CCCCC/C=C\CCCCCC/C=C/C(O)C#C` (centres undefined) [ISOPETROFORMYNE 4] showed an LD50 of 0.6 ppm.

In turn, `C#CC(=O)/C=C/CC/C=C\CCCC/C=C\CCC#CC(O)C#C/C=C/CC/C=C\CCCCCCCCCCCCC/C=C/C(O)C#C` (centres undefined) [PETROFORMYNE 8] yielded an LD50 of 0.77 ppm.

Compound `C#CCCCCCCCCCCCCCCCC/C=C\CC/C=C\C#CC(O)C#CCCCC/C=C\CCCCCCCCC(O)C#C` (centres undefined) registered an LD50 of 6.8 ppm.

The compound `C#CC(=O)/C=C/CC/C=C\CCCC/C=C\CCC#CC(O)C#C/C=C/CC/C=C\CCCCCCCCCCCCC/C=C/C(=O)C#C` (centres undefined) registered an LD50 of 5 ppm.

Regarding `C#C/C=C\CCCCCCCCCCCCCC/C=C\CCCCC#CC(O)C#CCCCC/C=C\CCCCCC/C=C/C(=O)C#C` (centres undefined), the LD50 is recorded as 0.5 ppm.

The compound `C#CCCCCCCCCCCCCCCCC/C=C\CC/C=C/C#CC(=O)C#CCCCC/C=C\CCCCCC/C=C/C(O)C#C` (centres undefined) displayed an LD50 of 1 ppm.

`C#CCCCCCCCCCCCCCCCC/C=C\CC/C=C\C#CC(O)C#CCCCC/C=C\CCCCCC/C=C/C(O)C#C` (centres undefined) [ISOPETROFORMYNE 3] registered an LD50 of 0.26 ppm.

Compound `C#CC(=O)/C=C/CCCCCC/C=C\CCCCC#CC(O)C#C/C=C/CC/C=C\CCCCCCCCCCCCC/C=C/C(=O)C#C` (centres undefined) showed an LD50 of 0.18 ppm.

For the origin of these results see ChEMBL document CHEMBL1159246, “Further Structural Studies on the Petroformynes” (J Nat Prod, 1995).
